Tests used:
[1] = test system: Wnt activity (Sp5-Luc reporter, SW480 colon carcinoma cells); assay: Screening assay for Wnt activity: Sp5-Luc reporter gene assay in SW480 cells; format: cell-based; settings: Homo sapiens, overnight incubation, 10-point dose-response from 10 μM
Summary of the method: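 SW480 cells stably carrying Sp5-Luc reporter (eight TCF/LEF sites) plated at 4,000/well in 1% FBS medium with compound (10-point 1:3 series from 10 μM, 0.1% DMSO) overnight at 37 °C. BrightGlo luminescence normalized to DMSO; EC50 by four-parameter fit, else % inhibition at 10 μM.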

[2] = test system: primary human fibroblasts derived from IPF patients (LL29 cells), α-smooth muscle actin (αSMA); assay: Inhibition of the fibrotic process: TGF-β1-treated primary human fibroblasts from IPF patients, αSMA staining; format: cell-based; settings: Fibroblast, 96 h, 4 days; for EC50: LL29 fibroblasts from IPF patients, TGF-β1 20 ng/mL, inhibition of fibrotic process; for inhibition at 10 µM: LL29 fibroblasts, TGF-β1 treated, read-out: percent inhibition at 10 μM (given for EC50 of >10 μM)
Summary of the method: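 Compound dilutions from 10 μM down to […] are dispensed, LL29 cells added in F12 with 1% FBS, and TGF-β1 (20 ng/mL) follows after 1 h. After 4 days, live-cell αSMA positivity is measured by immunofluorescence and normalized to TGF-β1-treated wells to derive EC50.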

Structure (SMILES)	EC50 [1] [nM]	EC50 [2] [nM]	inhibition at 10 µM [2] [%]
CCCCC(=O)Nc1cncc(-c2ccc3[nH]nc(-c4nc5c(-c6ccoc6)ccnc5[nH]4)c3n2)c1 [Compound 327, N-(5-(3-(7-(furan-3-yl)-3H-imidazo[4,5-b]pyridin-2-yl)-1H-pyrazolo[4,3-b]pyridin-5-yl)pyridin-3-yl)pentanamide]	803	277	–
c1cncc(-c2ccc3[nH]nc(-c4nc5c(-c6cccnc6)ccnc5[nH]4)c3n2)c1 [Compound 88, 5-(pyridin-3-yl)-3-(7-(pyridin-3-yl)-3H-imidazo[4,5-b]pyridin-2-yl)-1H-pyrazolo [4,3-b]pyridine]	1600	747	–
CC(C)Nc1cncc(-c2ccc3[nH]nc(-c4nc5c(-c6cc(F)cc(NCCN(C)C)c6)ccnc5[nH]4)c3n2)c1 [Compound 460, N^1-(3-fluoro-5-(2-(5-(5-(isopropylamino)pyridin-3-yl)-1H-pyrazolo[4,3-b]pyridin-3-yl)-3H-imidazo[4,5-b]pyridin-7-yl)phenyl)-N^2,N^2-dimethylethane-1,2-diamine]	1180	2450	–
O=C(Nc1cncc(-c2ccc3[nH]nc(-c4nc5c(-c6cccs6)ccnc5[nH]4)c3n2)c1)C1CC1 [Compound 356, N-(5-(3-(7-(Thiophen-2-yl)-3H-imidazo[4,5-b]pyridin-2-yl)-1H-pyrazolo [4,3-b]pyridin-5-yl)pyridin-3-yl)cyclopropanecarboxamide]	2280	4860	–
Fc1cccc(-c2ccnc3[nH]c(-c4n[nH]c5ccc(-c6cnccn6)nc45)nc23)c1 [Compound 520, 3-(7-(3-fluorophenyl)-3H-imidazo[4,5-b]pyridin-2-yl)-5-(pyrazin-2-yl)-1H-pyrazolo[4,3-b]pyridine]	3620	5330	–
Cc1ncc(-c2ccc3[nH]nc(-c4nc5c(-c6cccc(F)c6)ccnc5[nH]4)c3n2)n1C [Compound 509, 5-(1,2-dimethyl-1H-imidazol-5-yl)-3-(7-(3-fluorophenyl)-3H-imidazo[4,5-b]pyridin-2-yl)-1H-pyrazolo[4,3-b]pyridine]	120	> 10000	0

More lines, in order of falling EC50 [1], values ahead:

EC50 [1] [nM]	Structure (SMILES)	EC50 [2] [nM]	inhibition at 10 µM [2] [%]
1990	CC(C)(C)CC(=O)Nc1cncc(-c2ccc3[nH]nc(-c4nc5c(-c6ccccc6F)ccnc5[nH]4)c3n2)c1 [Compound 72, N-(5-(3-(7-(2-fluorophenyl)-3H-imidazo[4,5-b]pyridin-2-yl)-1H-pyrazolo [4,3-b]pyridin-5-yl)pyridin-3-yl)-3,3-dimethylbutanamide]	> 10000	0
1910	COc1cccc(-c2ccnc3[nH]c(-c4n[nH]c5ccc(-c6cncc(NC(=O)C7CCCCC7)c6)nc45)nc23)c1 [Compound 1012, N-(5-(3-(7-(3-Methoxyphenyl)-3H-imidazo[4,5-b]pyridin-2-yl)-1H-pyrazolo [4,3-b]pyridin-5-yl)pyridin-3-yl)cyclohexanecarboxamide]	1170	–
1870	COc1cccc(-c2ccnc3[nH]c(-c4n[nH]c5ccc(-c6cccnc6)nc45)nc23)c1 [Compound 994, 3-(7-(3-methoxyphenyl)-3H-imidazo[4,5-b]pyridin-2-yl)-5-(pyridin-3-yl)-1H-pyrazolo[4,3-b]pyridine]	590	–
527	O=C(Nc1cncc(-c2ccc3[nH]nc(-c4nc5c(-c6ccsc6)ccnc5[nH]4)c3n2)c1)c1ccccc1 [Compound 291, N-(5-(3-(7-(Thiophen-3-yl)-3H-imidazo[4,5-b]pyridin-2-yl)-1H-pyrazolo [4,3-b]pyridin-5-yl)pyridin-3-yl)benzamide]	> 10000	42.5
354	O=C(Nc1cncc(-c2ccc3[nH]nc(-c4nc5c(-c6ccc(Cl)s6)ccnc5[nH]4)c3n2)c1)C1CCC1 [Compound 1056, N-(5-(3-(7-(5-chlorothiophen-2-yl)-3H-imidazo[4,5-b]pyridin-2-yl)-1H-pyrazolo [4,3-b]pyridin-5-yl)pyridin-3-yl)cyclobutanecarboxamide]	284	–

Source: US10329309B2, “3-(3H-imidazo[4,5-B]pyridin-2-yl)-1H-pyrazolo[4,3-B]pyridines and therapeutic uses thereof” (Samumed, LLC, priority 2015, dated 2019)
